Experiments:
[1] = test system: UACC903 melanoma cells; assay: MTT cell viability assay, UACC903; format: cell-based, human; details: for cell proliferation and viability (number of viable cells): single agent, seven days
Description: (§6) MTT cell viability assays were performed as known in the art. C8161, UACC903, 1205Lu, SKMEL 187 and A2058 melanoma cell lines were used in the MTT assays. […] Viable cells were measured every day for 4 or 7 days. Absorbance was determined using a Tecan plate reader (Infinite 200 Tecan USA, Durham, N.C.) at 570 nm everyday for up to 7 days.

[2] = test system: 1205Lu melanoma cells; assay: MTT cell viability assay, 1205Lu; format: cell-based, human; details: for cell proliferation and viability (number of viable cells): single agent, seven days, FIG. 1C
Description: as §6

[3] = test system: C8161 human melanoma cell line; assay: Three dimensional anchorage independent colony assay, C8161; format: cell-based; details: riluzole 10 μM, sorafenib 5 μM or both; 14 days; FIG. 2
Description: (§1) The cells were suspended in 0.35% agar in RPMI supplemented with 10% FBS and plated on a layer of 0.75% agar in the same medium in 12-well culture plates (1−1.5×10^4 cells/well). […] Every other day, the vehicle, or drug(s) was again added with 250 μl of complete medium. After 14 days, the colonies were stained with iodonitrotetrazolium chloride (Sigma) and photographed. The numbers of colonies were counted using Image J software. Quantitation was performed by comparing the total number of colonies from three representative photomicrographs from each experiment. The histograms represent the average of three independent experiments.

[4] = test system: UACC903 human melanoma cell line; assay: Three dimensional anchorage independent colony assay, UACC903; format: cell-based; details: riluzole 10 μM, sorafenib 5 μM or both; 14 days; FIG. 2
Description: as §1

[5] = test system: 1205Lu human melanoma cell line; assay: Three dimensional anchorage independent colony assay, 1205Lu; format: cell-based; details: riluzole 10 μM, sorafenib 5 μM or both; 14 days; FIG. 2
Description: as §1

[6] = test system: SKMEL2 human melanoma cell line; assay: Three dimensional anchorage independent colony assay, SKMEL2; format: cell-based; details: riluzole 10 μM, sorafenib 5 μM or both; 14 days; vs control group; FIG. 2
Description: as §1

[7] = test system: C8161 human melanoma xenografts; assay: C8161 xenografts in immunodeficient nude mice; format: in vivo; details: riluzole 10 mg/kg
Description: (§2) The Institutional Review Board approved all animal studies for the Animal Care and Facilities Committee of Rutgers University. Nude mice were purchased from Taconic (Hudson, N.Y.). Cells were injected into 2 dorsal sites of each mouse at 10^6 cells per site. Tumor size was measured twice a week with a Vernier caliper and calculated as described. Once tumor volumes reached 6-10 mm^3, mice were divided into no treatment and treatment groups. […] The experiments were terminated when the xenografts in the no treatment group reached the maximum permitted size.
C8161 human melanoma cells were inoculated into the dorsal flanks of immunodeficient nude mice. 10^6 cells were inoculated into each dorsal flank of 5-6 week-old mice. When the tumors reached tumor volumes of ˜10 mm^3, the mice were randomly divided in 5 groups with similar tumor volumes. The mice were then treated by oral gavage daily, except for […] treatment, which was administered three times a week. […] Tumor volumes were determined once a week with a vernier caliper and the experiment was terminated when tumor burden in the control animals reached maximum permitted levels.

[8] = test system: UACC903 human melanoma xenografts; assay: UACC903 xenografts in immunodeficient nude mice; format: in vivo
Description: as §2
(§3) Briefly, UACC903 cells were injected into the dorsal flanks of nude mice. Tumors were allowed to grow to approximately 6-10 mm^3 and mice were divided into groups to obtain relatively constant tumor volumes between each group (12 mice per group).

[9] = test system: 1205Lu human melanoma xenografts; assay: 1205Lu xenografts in immunodeficient nude mice; format: in vivo; details: riluzole 10 mg/kg, sorafenib 24 mg/kg, or riluzole 5 mg/kg + sorafenib 12 mg/kg daily oral gavage; FIG. 3C
Description: as §2

[10] = test system: excised tumor xenografts; assay: Immunohistochemistry on excised xenografts (riluzole/sorafenib study); format: in vivo, mice; details: for number of Ki-67 positive cells: Ki-67 immunohistochemistry; for number of positive Caspase 3 cells vs controls: cleaved Caspase 3 immunohistochemistry
Excerpt: (§4) Tissue Analytical Services at the Cancer Institute of New Jersey performed immunohistochemical staining on excised tumor xenografts to detect changes in the number of apoptotic and proliferating cells (activated Caspase 3 and Ki-67, respectively). The number of stained cells was quantified with a Digital Aperio ScanScopeGL system and ImageScope software (v 10.1.3.2028) (Aperio Technologies Inc., Vista, Calif.) according to the manufacturer's protocol.
Additionally, immunohistochemical analyses were performed on excised xenografts using antibodies against the cleaved form of Caspase 3 to detect apoptotic cell death, and Ki-67 to detect changes in cell proliferation.

[11] = test system: ERK phosphorylation; assay: Western immunoblot, ERK phosphorylation; format: cell-based, human; details: C8161, UACC903 and 1205Lu cells; harvested xenografts showed similar results
Description: (§5) Protein lysates were prepared as commonly known in the art. Briefly, media was removed and cells were washed once with ice-cold phosphate buffered saline (PBS). After removal of PBS, the extraction buffer was added directly to the plates and cells were collected with a cell scraper. Cells were incubated on ice for 20 minutes. Cell debris was removed by centrifugation at 25,000×g at 4° C. for 20 minutes and supernatant taken for Western immunoblot analysis. Western Blotting was carried out with anti-PARP, anti-cleaved PARP, anti-phospho ERK, anti-total ERK, anti-a-tubulin antibodies, anti AKT and anti-Phospho AKT-S473.

[12] = test system: Mcl-1; assay: Western immunoblot, Mcl-1 levels; format: cell-based, human; details: C8161, UACC903 and 1205Lu cells
[13] = test system: C8161 melanoma cells; assay: MTT cell viability assay, C8161; details: for cell proliferation and viability (number of viable cells): single agent, seven days, FIG. 1A
Description: as §6

[14] = test system: SKMEL 28 human melanoma cells; assay: MTT cell viability assay, SKMEL 28; format: cell-based; details: single agent 10 μM, FIG. 5A
Description: as §6

[15] = test system: C8161 human melanoma xenografts; assay: Immunohistochemistry on excised C8161 xenografts (riluzole/MK2206 study); format: in vivo, mice; details: riluzole 10 mg/kg; for cleaved Caspase-3-positive (apoptotic) cells: MK2206 30 mg/kg, or riluzole 5 mg/kg + MK2206 15 mg/kg, combination p<0.001 vs single agent
Excerpt: as §4
Excised tumor samples were subjected to immunohistochemistry evaluation with the apoptosis marker, cleaved Caspase-3, and the proliferation index marker, Ki-67.

[16] = test system: AKT phosphorylation; assay: Western immunoblot, phosphorylated AKT; format: cell-based; details: three human melanoma cell lines (C8161, UACC903, SKMEL 28)
Description: as §5

[17] = test system: SKMEL 187 melanoma cells; assay: MTT cell viability assay, SKMEL 187; format: cell-based, human; details: riluzole 25 μM or 50 μM vs no treatment or vehicle (DMSO)
Description: as §6

[18] = test system: A2058 melanoma cells; assay: MTT cell viability assay, A2058; format: cell-based, human; details: riluzole 25 μM or 50 μM vs no treatment or vehicle (DMSO)
Description: as §6

[19] = test system: UACC903 melanoma cells; assay: Cell cycle analysis (propidium iodide flow cytometry), UACC903; format: cell-based, human; details: riluzole 10 μM, 24 hours post-treatment
Description: as §6

[20] = test system: 1205Lu melanoma cells; assay: Cell cycle analysis (propidium iodide flow cytometry), 1205Lu; format: cell-based, human; details: riluzole 10 μM, 24 hours post-treatment
Description: as §6

[21] = test system: A2058 melanoma cells; assay: Cell cycle analysis (propidium iodide flow cytometry), A2058; format: cell-based, human; details: riluzole 10 μM, 24 hours post-treatment
Description: as §6

[22] = test system: cleaved form of PARP; assay: Western analysis, cleaved PARP; format: cell-based, human; details: riluzole 10 μM; UACC903, 1205Lu, A2058 cells; 24 and 48 hours
Description: as §5, §3

[23] = test system: advanced melanoma; details: cited from earlier work
[24] = test system: melanoma; details: Phase II; cited from earlier work
[25] = riluzole 25 μM or 50 μM vs no treatment or vehicle (DMSO)

Compound | cell proliferation and viability (number of viable cells) ([1]; FIG. 1B) | cell proliferation and viability (number of viable cells) [2] | decrease in colony formation [3] | reduction in the number of colonies [4] | reduction in colony formation [5] [%] | decrease in colony formation [6] | number of Ki-67 positive cells [10] | number of positive Caspase 3 cells vs controls [10] | ERK phosphorylation [11] | Mcl-1 levels [12] | cell proliferation and viability (number of viable cells) [13] | cleaved Caspase-3-positive (apoptotic) cells [15] | AKT phosphorylation [16] | also measured
CNC(=O)c1cc(Oc2ccc(NC(=O)Nc3ccc(Cl)c(C(F)(F)F)c3)cc2)ccn1 [sorafenib] | substantial decrease in the number of viable cells | substantial decrease in the number of viable cells | little effect | 45% | 30 | more efficacious at decreasing colony formation | reduced | substantial increase in the number of positive Caspase 3 cells | more highly suppress ERK phosphorylation in UACC903 and 1205Lu cells than in C8161 cells | reduction in Mcl-1 levels was detected in sorafenib-treated UACC903 and 1205 LU cells | not very effective in suppressing C8161 cell growth |  |  | tumor volume ([7]; sorafenib 24 mg/kg, or riluzole 5 mg/kg + sorafenib 12 mg/kg daily oral gavage, FIG. 3A, p<0.001 for riluzole and combination vs NT or Veh): did not yield a significant decrease in tumor size; tumor volume ([8]; riluzole 10 mg/kg, sorafenib 24 mg/kg, or riluzole 5 mg/kg + sorafenib 12 mg/kg daily oral gavage, FIG. 3B, p<0.01 single agents day 18, p<0.001 combination): statistically relevant responses; tumor volume response compared to UACC903 xenografts [9]: more sensitive
NC1(c2ccc(-c3nc4ccn5c(=O)[nH]nc5c4cc3-c3ccccc3)cc2)CCC1 [MK2206] |  |  |  |  |  |  |  |  |  |  |  | significant increase in apoptotic cells | suppress AKT phosphorylation | cell proliferation ([1]; single agent 10 μM, FIG. 5A): suppress cell proliferation; cell proliferation [14]: suppress cell proliferation; tumor volume / xenograft growth ([7]; MK2206 30 mg/kg, or riluzole 5 mg/kg + MK2206 15 mg/kg, oral gavage, FIG. 6, combination p<0.005 vs NT or vehicle): suppress the growth of the melanoma xenografts; number of Ki-67 positive cells ([15]; MK2206 30 mg/kg, or combination at half the dose of each (p<0.001)): decrease in the number of Ki-67 positive cells; cell proliferation ([13]; single agent 10 μM, FIG. 5A): suppress cell proliferation
CCCS(=O)(=O)Nc1ccc(F)c(C(=O)c2c[nH]c3ncc(Cl)cc23)c1F [PLX4720] |  |  |  |  |  |  |  |  | only found to suppress ERK activity in the B-RAF^V600E cell line UACC903 | does not down regulate the levels of Mcl-1 |  |  |  | IC50 ([1]; Homo sapiens, UACC-903, UACC903 cells, MTT, FIG. 1B): 100 nM; tumor progression ([8]; riluzole 10 mg/kg, PLX4720 20 mg/kg, or riluzole 5 mg/kg + PLX4720 10 mg/kg, FIG. 3D): not as potent as riluzole; inhibition in cell proliferation ([13]; PLX4720 10 uM): only slight inhibition in cell proliferation
Nc1nc2ccc(OC(F)(F)F)cc2s1 [riluzole] | not as sensitive to riluzole | not as sensitive to riluzole | 40% | very little inhibitory activity | 30 | 18% | reduced | substantial increase in the number of positive Caspase 3 cells | decrease in levels of ERK phosphorylation in a cell line-dependent manner |  | greatest reduction in the number of viable cells | significant increase in apoptotic cells | suppress AKT phosphorylation | number of viable cells [1, 25]: significantly decreased the number of viable cells; number of viable cells [2, 25]: significantly decreased the number of viable cells; number of viable cells [17]: significantly decreased the number of viable cells; number of viable cells [18]: significantly decreased the number of viable cells; cells accumulating in the G2/M phase [19]: about half; cells accumulating in the G2/M phase [20]: about half; cells accumulating in the G2/M phase [21]: about half; tumor size vs controls ([8]; single agent riluzole daily by oral gavage, day 18, 12 mice per group): substantial difference between the tumor sizes; cleaved form of PARP [22]: increase in the cleaved form of PARP; patients showing measurable clinical responses ([23]; Phase 0, patients with advanced melanoma given riluzole): 34%; decrease in tumor size ([23]; Phase 0, some tumors): over 90%; RECIST criteria responses [24]: no RECIST criteria responses; patients exhibiting stable disease [24]: 42%; number of viable cells [13, 25]: significantly decreased the number of viable cells

From patent US20130116274A1 (RUTGERS, THE STATE UNIVERSITY OF NEW JERSEY, priority 2011, published 2013)
